{"source": "patent US20240344241A1", "about": "“PROTEINACEOUS MOLECULES AND USES THEREFOR” (THE UNIVERSITY OF QUEENSLAND, priority 2021, published 2024)", "key": {"[1]": {"test_system": "human whole blood, intrinsic pathway (INTEM)", "assay": "Rotational thromboelastometry INTEM in human whole blood", "settings": "10 μM", "experimental": "(§1) The anticoagulant activity of cyclic MCoFx7 was determined in human whole blood using two assays: activated clotting time (ACT) and rotational thromboelastometry (ROTEM). In ACT assays, the clotting time (y-axis) was increased in a dose-dependent manner from the control (124 s), reaching 223 s with 20 μM MCoFx7. […] Anticoagulant activity was verified by thromboelastometry (TEM) that was measured after activation of the intrinsic pathway (INTEM) (refer to FIG. 16). […] By comparison, a single concentration of cyclic [A25P]MCoFx7 (10 μM) produced a clotting time of 500 s, similar to cyclic MCoFx7 at 10 μM (469 s).\n(§2) Activated clotting time (ACT) was measured in fresh whole blood using celite tubes with the Hemochron 401 coagulation analyzer (Soma Technology, Bloomfield, CT, USA). Whole blood clot formation was recorded by ROTEM® Thromboelastometry (Haemoview Diagnostics, Brisbane, Australia) using INTEM (contact factor-initiated coagulation) and HEPTEM (contact factor-initiated coagulation with heparinase) activating reagents according to the manufacturer's instructions."}, "human whole blood": {"test_system": "human whole blood", "assay": "Activated clotting time (ACT) in human whole blood", "settings": "10 μM, human whole blood", "experimental": "as §1, §2"}, "Human β-FXIIa [2]": {"biological_target": "T1, Human β-FXIIa (Homo sapiens, UniProt P00748)", "T1 construct": "Human β-FXIIa was obtained from Molecular Innovations, together with human FXa, human FXIa, human α-thrombin, and human plasma kallikrein; purchased Molecular Innovations; host or cells: purified from human plasma", "T1 sequence (P00748 373-615 limits assumed, other chains not shown)": "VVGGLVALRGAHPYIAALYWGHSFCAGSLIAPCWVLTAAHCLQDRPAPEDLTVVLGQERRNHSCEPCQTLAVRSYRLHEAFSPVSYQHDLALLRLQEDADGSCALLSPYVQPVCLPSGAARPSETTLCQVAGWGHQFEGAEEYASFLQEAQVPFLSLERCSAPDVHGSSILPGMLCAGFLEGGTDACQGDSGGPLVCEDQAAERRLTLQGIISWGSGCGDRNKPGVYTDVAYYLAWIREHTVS", "assay": "FXIIa competitive inhibition assay, fluorescent substrate Boc-QGR-MCA", "format": "biochemical", "source_text": "Cyclic [I7F]MCoFx1 (also referred to as cyclic MCoFx6) was synthesized using solid phase peptide synthesis ([[…]] [SEQ ID NO: 97]). For this inhibitor, Tyr33 was mutated back to serine as per the original mRNA display screen (FIG. 1). Cyclic MCoFx6 was screened using a competitive inhibition assay, with the substrate being changed from a colorimetric substrate (Ac-QRFR-pNA in the data of Tables 7 and 10) to a fluorescent substrate (Boc-QGR-MCA) to allow the assay to be run with a lower concentration of enzyme. The assay was performed as described for Examples 2 and 3, except that the FXIIa concentration was 0.5 nM and the substrate concentration was 50 μM (KM=187 μM).\nThe new variants were screened using competitive inhibition assays, with the substrate being changed from a colorimetric substrate (Ac-QRFR-pNA in the data of Tables 7 and 10) to a fluorescent substrate (Boc-QGR-MCA) to allow the assay to be run with a lower concentration of enzyme. Assays were performed as described for Examples 2 and 3, except that the FXIIa concentration was 0.5 nM and the substrate concentration was 50 μM (KM=187 μM). […] The effect of amino acid substitutions within loop 2 (Arg12, Arg13), loop 5 (Ala25, Arg27) or loop 6 (Asp34) on the activity of cyclic MCoFx7 against FXIIa was determined (refer to Table 14). […] Additionally, mutating Arg to Glu (reversing the side chain charge) only led to two-fold weaker activity. The adjacent residue Arg13 could also be mutated to Lys with no change in activity. Within loop 5, mutating Ala25 to Lys produced a slight gain in activity, whereas the Ala to Pro mutation led to a slight decrease in activity. Both mutations at Arg27 led to losses in activity in the order of two-fold (His) or 3.2-fold (Gly).\n(§3) The activity of acyclic and cyclic MCoFx1-5 and analogues thereof was assessed in competitive inhibition assays, as previously described in Swedberg et al. (2016) J Med Chem, 59: 7287-7292. Human β-FXIIa was obtained from Molecular Innovations, together with human FXa, human FXIa, human α-thrombin, and human plasma kallikrein. Human cationic trypsin and human plasmin were obtained from Sigma-Aldrich, and recombinant human matriptase was sourced from R&D Systems. Recombinant human urokinase (uPA) and recombinant human tissue plasminogen activator (tPA) were expressed in Expi293 cells, as previously described in Li et al. (2019) Chembiochem, 20: 46-50. FXIIa inhibition assays were performed in clear, low-binding 96-well plates using 250 μL (final volume) of assay buffer (0.1 M Tris-HCl pH 8.0, 0.1 M NaCl, 10 mM CaCl2 and 0.005% Triton X-100). Inhibitors were serially diluted and incubated with 10 nM FXIIa at room temperature to reach equilibrium. After adding 100 μM Ac-QRFR-pNA substrate (KM=162 μM), enzymatic activity was measured by monitoring release of the pNA moiety using a TECAN infinite M1000 Pro plate reader (A=405 nm, reading interval, 10 s; assay time course, 7 min). Assays were conducted in three times in duplicate. Substrate kinetic constants (Michaelis-Menten) and inhibition constants (Morrison K) were determined by non-linear regression using Prism 7 (GraphPad). Selectivity assays with off-target proteases were performed in a similar way, except that different concentrations of enzyme and substrate were used, as indicated in Table 16. For assays using a fluorescent substrate (peptide-4-methylcoumaryl-7-amide, MCA), black low-binding 96-well plates were used and activity was measured using a TECAN infinite M1000 pro plate reader (λex 360 nm, λem 460 nm, reading interval, 30 s; assay time course, 5-30 min)."}, "[3]": {"biological_target": "kallikrein-related peptidase 4 (KLK4) (Homo sapiens, UniProt Q9Y5K2)", "sequence (Q9Y5K2 31-254)": "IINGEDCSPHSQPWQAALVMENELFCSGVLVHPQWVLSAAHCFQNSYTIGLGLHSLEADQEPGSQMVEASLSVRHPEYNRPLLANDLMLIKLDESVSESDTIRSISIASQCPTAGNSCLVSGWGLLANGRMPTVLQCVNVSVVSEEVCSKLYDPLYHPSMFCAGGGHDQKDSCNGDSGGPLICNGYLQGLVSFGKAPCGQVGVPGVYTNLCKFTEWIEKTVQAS", "assay": "KLK4 competitive inhibition assay", "format": "biochemical", "experimental": "The inhibitor variants were screened against FXIIa and three off-target proteases, trypsin, matriptase and kallikrein-related peptidase 4 (KLK4), in competitive inhibition assays using a single concentration of inhibitor that ranged from 1.25 nM (KLK4) to 25 nM (FXIIa).\nThe activity of acyclic and cyclic MCoFx1-5 and analogues thereof was assessed in competitive inhibition assays, as previously described in Swedberg et al. (2016) J Med Chem, 59: 7287-7292. Human β-FXIIa was obtained from Molecular Innovations, together with human FXa, human FXIa, human α-thrombin, and human plasma kallikrein. Human cationic trypsin and human plasmin were obtained from Sigma-Aldrich, and recombinant human matriptase was sourced from R&D Systems. […] After adding 100 μM Ac-QRFR-pNA substrate (KM=162 μM), enzymatic activity was measured by monitoring release of the pNA moiety using a TECAN infinite M1000 Pro plate reader (A=405 nm, reading interval, 10 s; assay time course, 7 min). […] Substrate kinetic constants (Michaelis-Menten) and inhibition constants (Morrison K) were determined by non-linear regression using Prism 7 (GraphPad). […] For assays using a fluorescent substrate (peptide-4-methylcoumaryl-7-amide, MCA), black low-binding 96-well plates were used and activity was measured using a TECAN infinite M1000 pro plate reader (λex 360 nm, λem 460 nm, reading interval, 30 s; assay time course, 5-30 min)."}, "[4]": {"test_system": "clotting via the extrinsic pathway", "assay": "Prothrombin time (PT) assay in human plasma", "format": "biochemical", "settings": "at 10 μM", "source_text": "(§4) Citrated, platelet-poor plasma samples from healthy adults were collected, prepared, and stored using previously established collection protocols, such as in Zdenek et al. (2019) Toxicol in Vitro, 58: 97-109.\n(§5) Standard coagulation assays were used to determine the effect of the inhibitors on the clotting time of human plasma. Activated partial thromboplastin time (aPTT) uses a Kaolin reagent (clay) to activate the intrinsic/contact pathway of the coagulation cascade, whereas prothrombin time (PT) uses Neoplastine (lyophilized thromboplastin prepared from rabbit cerebral tissue) to activate the extrinsic/tissue-factor pathway of the coagulation cascade. A minor adjustment was made to both tests (addition of 25 μL inhibitor or buffer; refer to Table 17) to accommodate the addition of an inhibitor without changing the total volume (and therefore relative ratios of additives) of the assay. Concentrations of inhibitor are reported as the concentration at the point of incubation in the assay, i.e. not taking into account the addition of the start reagent (calcium for aPTT, or Neoplastine for PT).\n(§6) Clotting time (seconds) of plasma was automatically measured using a STA-R Max® analyzer (Stago, Asnieres sur Seine, France). Measurements were conducted using a viscosity-based (mechanical) detection system, whereby opposing magnets oscillate a small metal spherical pellet inside the test cuvette (250 μL total volume) until a clot is formed. Dilution of the inhibitor in Owren-Koller (OK) buffer for dose-response curves was performed automatically by the machine. Reagents were kept at 15-19° C. in the machine during experimentation and otherwise stored at 4° C. All tests were performed in triplicate."}, "Human trypsin": {"biological_target": "T2, Human trypsin (Homo sapiens, UniProt P07477)", "T2 construct": "purchased Sigma-Aldrich; host or cells: purified from human tissue", "assay": "Trypsin competitive inhibition assay", "format": "biochemical", "experimental": "as §3"}, "Human β-FXIIa [5]": {"biological_target": "T1, Human β-FXIIa", "assay": "FXIIa competitive inhibition assay, colorimetric substrate Ac-QRFR-pNA", "format": "biochemical", "summary_of_the_method": "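Assays run three times in duplicate at pH 8.0 (Tris-HCl, NaCl, CaCl2, Triton X-100). Rates of pNA or MCA release after enzyme–inhibitor equilibration at room temperature were fitted by non-linear regression to the Morrison equation for Ki.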"}, "Rec. human matriptase": {"biological_target": "T3, Rec. human matriptase (Homo sapiens, UniProt Q9Y5Y6)", "T3 construct": "purchased R&D Systems", "T3 sequence (Q9Y5Y6 615-855 limits assumed)": "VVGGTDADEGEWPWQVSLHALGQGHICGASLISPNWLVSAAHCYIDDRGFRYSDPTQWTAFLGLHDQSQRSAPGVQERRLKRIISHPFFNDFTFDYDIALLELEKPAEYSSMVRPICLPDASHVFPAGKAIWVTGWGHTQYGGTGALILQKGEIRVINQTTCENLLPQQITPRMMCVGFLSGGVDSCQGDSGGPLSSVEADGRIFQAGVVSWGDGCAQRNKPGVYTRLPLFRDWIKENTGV", "assay": "Matriptase inhibition assay", "format": "biochemical", "experimental": "as §3"}, "[6]": {"test_system": "clotting via the intrinsic pathway", "assay": "Activated partial thromboplastin time (aPTT) assay in human plasma", "format": "biochemical", "source_text": "as §4, §5, §6"}}, "note": "Bridge positions count the residues as written; N and C are the ends. Peptide text beside a SMILES is read from it.", "data": [{"compound": "CC[C@H](C)[C@@H]1NC(=O)CNC(=O)CNC(=O)[C@H](CC(=O)O)NC(=O)[C@H](CO)NC(=O)CNC(=O)[C@H](CO)NC(=O)CNC(=O)[C@@H]2CSSC[C@@H]3NC(=O)[C@H](CC(=O)O)NC(=O)[C@H](CO)NC(=O)[C@H](CC(=O)O)NC(=O)[C@H](CCCNC(=N)N)NC(=O)[C@H](CCCNC(=N)N)NC(=O)[C@@H]4CSSC[C@H](NC(=O)[C@H]([C@@H](C)CC)NC(=O)[C@H](CSSC[C@H](NC1=O)C(=O)N1CCC[C@H]1C(=O)N[C@@H](CCCNC(=N)N)C(=O)N[C@@H]([C@@H](C)CC)C(=O)NCC(=O)N[C@@H](CCCNC(=N)N)C(=O)N[C@@H](CC(C)C)C(=O)N4)NC(=O)[C@H](C)NC(=O)CNC(=O)[C@@H]1CCCN1C3=O)C(=O)N[C@@H](CCCNC(=N)N)C(=O)N1CCC[C@H]1C(=O)N[C@@H]([C@@H](C)O)C(=O)N[C@@H](CCCNC(=N)N)C(=O)N[C@@H](Cc1ccccc1)C(=O)N2", "note": "[Cyclic [A25P]MCoFx7] (cyclo(ACICRPTRFCGSGSDGGICPRIGRLCRRDSDCPG); disulfide 2-19, 4-26, 10-32)", "values": [{"measurement": "INTEM clotting time", "setting": "[1]", "value": 500, "unit": "s"}, {"measurement": "ACT clotting time", "setting": "human whole blood", "value": 186, "unit": "s"}, {"measurement": "Ki", "setting": "Human β-FXIIa [2]", "value": "0.093 ± 0.005", "unit": "nM"}]}, {"compound": "NH2-RVCPR[4-F-Phe]EKKCRRDSDCPGACICRGNGYCG-OH (RVCPRXEKKCRRDSDCPGACICRGNGYCG; 4-F-Phe non-natural residue; MOD_RES 6 4-fluoro-L-phenylalanine) [Peptide 1]", "values": [{"measurement": "fold change in activity for KLK4 compared to M", "setting": "[3]", "value": "> 100,000 fold"}, {"measurement": "clotting time compared to control, PT assay", "setting": "[4]", "value": "No effect on clotting time"}, {"measurement": "Ki against trypsin (in words)", "setting": "Human trypsin", "value": "in the micromolar range"}, {"measurement": "fold change in activity for trypsin compared to M", "setting": "Human trypsin", "value": "7,350 fold"}, {"measurement": "change in Ki for FXIIa compared to M", "setting": "Human β-FXIIa [5]", "value": "three-fold"}, {"measurement": "Ki against matriptase (in words)", "setting": "Rec. human matriptase", "value": "in the micromolar range"}, {"measurement": "fold change in activity for matriptase compared to M", "setting": "Rec. human matriptase", "value": "9,650 fold"}, {"measurement": "EC1.5× (concentration required to extend the clotting time by 50%)", "setting": "[6]", "value": 840, "unit": "nM"}, {"measurement": "EC2× (doubling the clotting time)", "setting": "[6]", "value": 2.9, "unit": "µM"}]}]}
